In patent US20210386068A1, “COMPOSITIONS COMPRISING PYRIDINE CARBOXYLATE HERBICIDES AND VERY LONG CHAIN FATTY ACID (VLCFA) SYNTHESIS INHIBITOR HERBICIDES” (priority 2018, published 2021):
Several values for one entry are separate records, joined by “and”; a condition that tells them apart may be missing. Equal values may be shown once.

Assays:
[1] = system: Lamium purpureum (purple deadnettle, LAMPU); assay: Greenhouse postemergence herbicidal effect, visual injury 20-22 d after spraying, purple deadnettle (LAMPU); assay type: in vivo
Text: (§1) Seeds of the desired test plant species were planted in a 90:10% v/v (volume/volume) mixture of PRO-MIX® BX (Premier Tech Horticulture, Quakertown, Pa., USA) and PROFILE® GREENS GRADE™ (Profile Products LLC, Buffalo Grove, Ill., USA) planting mixture, which typically has a pH of 5.2 to 6.2 and an organic matter content of at least 50 percent, in plastic pots with a surface area of 103.2 square centimeters (cm^2). In some aspects, to ensure good germination and healthy plants, a fungicide treatment and/or other chemical or physical treatment was applied. The plants were grown for 7-36 days (d) in a greenhouse with an approximate 14-hour (h) photoperiod which was maintained at about 23° C. during the day and 22° C. during the night. Nutrients and water were added on a regular basis and supplemental lighting was provided with overhead metal halide 1000-Watt lamps as necessary. The plants were employed for testing when they reached the second or third true leaf stage.
(§2) Emulsifiable concentrates of each of each pyridine carboxylate herbicide (Compound A or Compound B) were prepared at 100 grams acid equivalent per liter (g ae/L). The emulsifiable concentrates also included a safener, cloquintocet-mexyl, at 120 grams active ingredient per liter (g ai/L). An aliquot of each emulsifiable concentrate was placed in a 25 mL glass vial and diluted with an aqueous mixture of 1.25% (v/v) ACTIROB® B esterified rapeseed oil (Bayer Crop Science, Research Triangle Park, N.C., USA) or MSO® Concentrate with LECI-TECH® methylated soybean oil (Loveland Products, Loveland, Colo., USA) to obtain concentrated stock solutions at the highest application rate for each herbicide, based upon a 12 milliliter (mL) application volume at a rate of 187 liters per hectare (L/ha). The concentrated stock solutions were further diluted with an aqueous mixture of 1.25% v/v ACTIROB® B or MSO® Concentrate with LECI-TECH® to obtain stock solutions at reduced application rates for each herbicide. Spray solutions of the herbicide combinations (Compound A or Compound B plus VLCFA synthesis inhibitor herbicide) were prepared by adding weighed amounts or aliquots of the VLCFA synthesis inhibitor herbicide to the stock solutions of Compound A or Compound B to form 12-mL spray solutions in two-way combinations.
(§3) The spray solutions were applied to the plant material with an overhead Mandel track sprayer equipped with 8002E nozzles calibrated to deliver 187 L/ha over an application area of 0.503 square meters (m^2) at a spray height of 18 inches ([…] (cm)) above the average plant canopy. Control plants were sprayed in the same manner with the solvent blank. All pyridine carboxylate herbicide (component a) application rates are given as “g ae/ha” and all VLCFA synthesis inhibitor herbicide (component b) application rates are given as “g ai/ha.”
(§4) The treated plants and control plants were placed in a greenhouse as described above and watered by sub-irrigation to prevent wash-off of the test compounds. After 20-22 d, the condition of the test plants as compared with that of the control plants was determined visually and scored on a scale of 0 to 100 percent where 0 corresponds to no injury and 100 corresponds to complete kill.

[2] = system: Polygonum convolvulus (wild buckwheat, POLCO); assay: Greenhouse postemergence herbicidal effect, visual injury 20-22 d after spraying, wild buckwheat (POLCO); assay type: in vivo
Text: as §1, §2, §3, §4

[3] = system: Helianthus annuus (common sunflower, HELAN); assay: Greenhouse postemergence herbicidal effect, visual injury 20-22 d after spraying, common sunflower (HELAN); assay type: in vivo
Text: as §1
(§5) Emulsifiable concentrates of each of each pyridine carboxylate herbicide (Compound A or Compound B) were prepared at 100 grams acid equivalent per liter (g ae/L). The emulsifiable concentrates also included a safener, cloquintocet-mexyl, at 120 grams active ingredient per liter (g ai/L). […]
as §4

[4] = system: Matricaria inodora (scentless chamomile, MATIN); assay: Greenhouse postemergence herbicidal effect, visual injury 20-22 d after spraying, scentless chamomile (MATIN); assay type: in vivo
Text: as §1, §2, §3, §4

[5] = system: Brassica napus (winter rape, BRSNW); assay: Greenhouse postemergence herbicidal effect, visual injury 20-22 d after spraying, winter rape (BRSNW); assay type: in vivo; conditions: for % visual injury Obs: BRSNW
Text: as §1, §2, §3, §4

[6] = system: Stellaria media (common chickweed, STEME); assay: Greenhouse postemergence herbicidal effect, visual injury 20-22 d after spraying, common chickweed (STEME); assay type: in vivo
Text: as §1, §2, §3, §4

[7] = system: Papaver rhoeas (common poppy, PAPRH); assay: Greenhouse postemergence herbicidal effect, visual injury 20-22 d after spraying, common poppy (PAPRH); assay type: in vivo
Text: as §1, §2, §3, §4

[8] = system: Ipomoea hederacea (ivyleaf morningglory, IPOHE); assay: Greenhouse postemergence herbicidal effect, visual injury 20-22 d after spraying, ivyleaf morningglory (IPOHE); assay type: in vivo
Text: as §1, §5, §4

[9] = system: Veronica persica (Persian speedwell, VERPE); assay: Greenhouse postemergence herbicidal effect, visual injury 20-22 d after spraying, Persian speedwell (VERPE); assay type: in vivo
Text: as §1, §2, §3, §4

[10] = system: Triticum aestivum (spring wheat, TRZAS); assay: Greenhouse postemergence crop phytotoxicity, visual injury 20-22 d after spraying, spring wheat (TRZAS); assay type: in vivo; conditions: for % visual injury Obs: TRZAS
Text: as §1, §2, §3, §4

[11] = system: Brassica napus (spring rape, BRSNN); assay: Greenhouse postemergence herbicidal effect, visual injury 20-22 d after spraying, spring rape (BRSNN); assay type: in vivo
Text: as §1, §2, §3, §4

[12] = system: Anthemis arvensis (corn chamomile, ANTAR); assay: Greenhouse postemergence herbicidal effect, visual injury 20-22 d after spraying, corn chamomile (ANTAR); assay type: in vivo
Text: as §1, §2, §3, §4

[13] = system: Sinapis arvensis (wild mustard, SINAR); assay: Greenhouse postemergence herbicidal effect, visual injury 20-22 d after spraying, wild mustard (SINAR); assay type: in vivo; conditions: for % visual injury Obs: SINAR
Text: as §1, §2, §3, §4

[14] = system: Cyanus segetum (cornflower, CENCY); assay: Greenhouse postemergence herbicidal effect, visual injury 20-22 d after spraying, cornflower (CENCY); assay type: in vivo
Text: as §1, §2, §3, §4

winter barley (HORVW) = assay: Greenhouse postemergence crop phytotoxicity, visual injury 20-22 d after spraying, winter barley (HORVW); assay type: in vivo, Hordeum vulgare
Text: as §1, §2, §3, §4

[15] = system: Viola arvensis (field pansy, VIOAR); assay: Greenhouse postemergence herbicidal effect, visual injury 20-22 d after spraying, field pansy (VIOAR); assay type: in vivo
Text: as §1, §2, §3, §4

[16] = system: Viola tricolor (wild pansy, VIOTR); assay: Greenhouse postemergence herbicidal effect, visual injury 20-22 d after spraying, wild pansy (VIOTR); assay type: in vivo; conditions: for % visual injury Obs: VIOTR
Text: as §1, §2, §3, §4

With `N#CCOC(=O)c1nc(-c2ccc3cc[nH]c3c2F)c(F)c(N)c1Cl` [Compound A, cyanomethyl 4-amino-3-chloro-5-fluoro-6-(7-fluoro-1H-indol-6-yl)pyridine-2-carboxylate] the “% visual injury LAMPU Obs” value ([1]; Compound A 7.5 g/ha) was 68%, the “% visual injury LAMPU Obs” value ([1]; Compound A 10 g/ha) was 73% and the “% visual injury LAMPU Obs” value ([1]; Compound A 15 g/ha) was 73%. For the same compound, the “% visual injury POLCO Obs” value ([2]; Compound A 7.5 g/ha) was 65%, the “% visual injury POLCO Obs” value ([2]; Compound A 10 g/ha) was 78% and the “% visual injury POLCO Obs” value ([2]; Compound A 15 g/ha) was 85%. For the same compound, the “% visual injury Obs” value ([3]; Compound A 7.5 g/ha alone) was 83%, the “% visual injury Obs” value ([3]; Compound A 10 g/ha alone) was 88% and the “% visual injury MATIN Obs” value ([4]; Compound A 7.5 g/ha) was 55%. The “% visual injury MATIN Obs” value ([4]; Compound A 10 g/ha) was 60%, the “% visual injury MATIN Obs” value ([4]; Compound A 15 g/ha) was 83% and the “% visual injury Obs” value ([5]; Compound A 7.5 g/ha alone) was 35%. The “% visual injury Obs” value ([5]; Compound A 10 g/ha alone) was 43% and 40%, the “% visual injury BRSNW Obs” value ([5]; Compound A 7.5 g/ha) was 60% and the “% visual injury BRSNW Obs” value ([5]; Compound A 10 g/ha) was 65%. For the same compound, the “% visual injury BRSNW Obs” value ([5]; Compound A 15 g/ha) was 73%, the “% visual injury STEME Obs” value ([6]; Compound A 7.5 g/ha) was 85% and the “% visual injury STEME Obs” value ([6]; Compound A 10 g/ha) was 88%. For the same compound, the “% visual injury STEME Obs” value ([6]; Compound A 15 g/ha) was 89%, the “% visual injury PAPRH Obs” value ([7]; Compound A 7.5 g/ha) was 100% and the “% visual injury PAPRH Obs” value ([7]; Compound A 10 g/ha) was 99%. For the same compound, the “% visual injury PAPRH Obs” value ([7]; Compound A 15 g/ha) was 100%, the “% visual injury Obs” value ([8]; Compound A 7.5 g/ha alone) was 5% and the “% visual injury Obs” value ([8]; Compound A 10 g/ha alone) was 0%. For the same compound, the “% visual injury VERVE Obs” value ([9]; Compound A 7.5 g/ha) was 78%, the “% visual injury VERVE Obs” value ([9]; Compound A 10 g/ha) was 90% and the “% visual injury VERVE Obs” value ([9]; Compound A 15 g/ha) was 93%. The “% visual injury TRZAS Obs” value ([10]; Compound A 7.5 g/ha) was 0%, the “% visual injury TRZAS Obs” value ([10]; Compound A 10 g/ha) was 0% and the “% visual injury TRZAS Obs” value ([10]; Compound A 15 g/ha) was 0%. The “% visual injury Obs” value ([10]; Compound A 7.5 g/ha alone) was 0%, the “% visual injury Obs” value ([10]; Compound A 10 g/ha alone) was 0% and the “% visual injury Obs” value ([11]; Compound A 7.5 g/ha alone) was 55%. The “% visual injury Obs” value ([11]; Compound A 10 g/ha alone) was 60% and 70%, the “% visual injury ANTAR Obs” value ([12]; Compound A 7.5 g/ha) was 68% and the “% visual injury ANTAR Obs” value ([12]; Compound A 10 g/ha) was 70%. The “% visual injury ANTAR Obs” value ([12]; Compound A 15 g/ha) was 88%, the “% visual injury SINAR Obs” value ([13]; Compound A 7.5 g/ha) was 88% and the “% visual injury SINAR Obs” value ([13]; Compound A 10 g/ha) was 91%. The “% visual injury SINAR Obs” value ([13]; Compound A 15 g/ha) was 91%, the “% visual injury Obs” value ([13]; Compound A 7.5 g/ha alone) was 88% and 85% and 83% and the “% visual injury Obs” value ([13]; Compound A 10 g/ha alone) was 90% and 92% and 88%. The “% visual injury CENCY Obs” value ([14]; Compound A 7.5 g/ha) was 75%, the “% visual injury CENCY Obs” value ([14]; Compound A 10 g/ha) was 78% and the “% visual injury CENCY Obs” value ([14]; Compound A 15 g/ha) was 80%. For the same compound, the “% visual injury HORVW Obs” value (winter barley (HORVW); Compound A 7.5 g/ha) was 0%, the “% visual injury HORVW Obs” value (winter barley (HORVW); Compound A 10 g/ha) was 0% and the “% visual injury HORVW Obs” value (winter barley (HORVW); Compound A 15 g/ha) was 0%. The “% visual injury VIOAR Obs” value ([15]; Compound A 7.5 g/ha) was 10%, the “% visual injury VIOAR Obs” value ([15]; Compound A 10 g/ha) was 13% and the “% visual injury VIOAR Obs” value ([15]; Compound A 15 g/ha) was 10%. For the same compound, the “% visual injury VIOTR Obs” value ([16]; Compound A 7.5 g/ha) was 13%, the “% visual injury VIOTR Obs” value ([16]; Compound A 10 g/ha) was 15% and the “% visual injury VIOTR Obs” value ([16]; Compound A 15 g/ha) was 15%. For the same compound, the “% visual injury Obs” value ([16]; Compound A 7.5 g/ha alone) was 3% and the “% visual injury Obs” value ([16]; Compound A 10 g/ha alone) was 3%.
